The values below come from patent publication US10933056B2, “3-(1H-pyrazol-4-yl)pyridine allosteric modulators of the M4 muscarinic acetylcholine receptor” (Merck Sharp & Dohme Corp., priority 2015, dated 2021).

Each structure is given as a SMILES string.

For this experiment, the target named is T1, human M4 muscarinic acetylcholine receptor (Homo sapiens, UniProt P08173).
T1 construct: expressed in transfected cells; host or cells: CHO-K1
T1 sequence (P08173 1-479): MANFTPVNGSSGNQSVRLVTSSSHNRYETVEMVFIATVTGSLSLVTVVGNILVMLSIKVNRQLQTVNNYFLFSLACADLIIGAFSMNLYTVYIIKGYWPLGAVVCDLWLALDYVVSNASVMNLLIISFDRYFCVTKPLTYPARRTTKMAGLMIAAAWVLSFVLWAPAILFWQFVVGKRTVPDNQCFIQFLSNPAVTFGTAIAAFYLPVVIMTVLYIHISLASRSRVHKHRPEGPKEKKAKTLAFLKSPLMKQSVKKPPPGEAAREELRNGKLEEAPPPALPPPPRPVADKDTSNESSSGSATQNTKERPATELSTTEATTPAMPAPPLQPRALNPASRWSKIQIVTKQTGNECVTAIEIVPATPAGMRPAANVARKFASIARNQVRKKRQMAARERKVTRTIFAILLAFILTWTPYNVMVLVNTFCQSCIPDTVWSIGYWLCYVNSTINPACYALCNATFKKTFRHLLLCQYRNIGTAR
Put plainly: human FLIPR-based M4 PAM assay (calcium mobilization in CHO-K1 cells with human M4 receptor and Gαqi5). In kind it is cell-based. Particulars: inflection point of dose response curve, acetylcholine at 20% of maximum response, FLIPR Tetra, read-out: M4 PAM IP. Here is the method: (§1) In a typical experiment the M4 muscarinic acetylcholine receptor modulating activity of the compounds of the present invention was determined in accordance with the following experimental method. CHO-K1 cells stably transfected with human M4 receptor and chimeric G-protein Gαqi5 (Coward P, et al., Analytical Biochemistry, 270:242-248 (1999)) are thawed from liquid N2 storage, resuspended in growth medium, plated in black, clear bottom 384 well plates, and incubated 16-20 hours at 37° C., 5% CO2. On the day of assay, growth medium is removed, the cells are washed 2 times with wash buffer, and cells are incubated in dye loading buffer at 37° C., 5% CO2 for ˜1 hour. Following dye loading the cell plates are placed in a FLIPR Tetra instrument and while monitoring dye fluorescence (excitation […]), 10 uL of test substance at increasing concentrations is added, and fluorescence values are recorded for 4 min. Next, 10 uL of acetylcholine is added (final concentration calculated so as to achieve 20% of the maximum acetycholine response), and the fluorescence reading is continued for 3.5 min. In some cases, a third addition of acetylcholine (final concentration calculated to achieve 70% of the maximal acetylcholine response) is performed. The resulting dose response curves are fit to a 4 parameter logistic equation and the final result is determined as the inflection point (IP) of the curve
as §1, with “CHO-K1” for “In a typical experiment the M4 muscarinic acetylcholine receptor modulating activity of the compounds of the present invention was determined in accordance with the following experimental method. CHO-K1”, “Gαqi5” for “Gαqi5 (Coward P, et al., Analytical Biochemistry, 270:242-248 (1999))”, “performed.” for “performed. The resulting dose response curves are fit to a 4 parameter logistic equation and the final result is determined as the inflection point (IP) of the curve”
A general note: A change in cytosolic calcium serves as a functional read-out for many receptors and channels.

In the case of `CC1(Cn2ncc(-c3ccc(C#N)nc3-c3ccc4c(c3)C(=O)N(CC3CC3)C4)c2F)CCCC1` [Example 45, 6-(2-(cyclopropylmethyl)-3-oxoisoindolin-5-yl)-5-(5-fluoro-1-((1-methylcyclopentyl)methyl)-1H-pyrazol-4-yl)picolinonitri1e], the EC50 came to 41 nM.
For `CN1Cc2ccc(-c3nc(C#N)c(F)cc3-c3cnn(CC4(C)CCCC4)c3)cc2C1=O` [Example 47, 3-fluoro-6-(2-methyl-3-oxoisoindolin-5-yl)-5-(1-((1-methylcyclopentyl)methyl)-1H-pyrazol-4-yl)picolinonitrile], the EC50 was 20 nM.
Then `CC1(Cn2cc(-c3cc(F)c(C#N)nc3-c3ccc4c(c3)C(=O)N(CC3CC3)C4)cn2)CCCC1` [Example 48, 6-(2-(cyclopropylmethyl)-3-oxoisoindolin-5-yl)-3-fluoro-5-(1-((1-methylcyclopentyl)methyl)-1H-pyrazol-4-yl)picolinonitrile], with 76 nM; and `CC1(Cn2cc(-c3cc4c(nc3-c3ccc5c(c3)C(=O)N(CCF)C5)CCC4)cn2)CCCC1` [Example 49, 2-(2-fluoroethyl)-6-(3-(1-((1-methylcyclopentyl)methyl)-1H-pyrazol-4-yl)-6,7-dihydro-5H-cyclopenta[b]pyridin-2-yl)isoindolin-1-one], with 32 nM.
For `CN1Cc2ccc(-c3ncc(F)cc3-c3cnn(CC4(C)CCCC4)c3)cc2C1=O` [Example 50, 6-(5-fluoro-3-(1-((1-methylcyclopentyl)methyl)-1H-pyrazol-4-yl)pyridin-2-yl)-2-methylisoindolin-1-one] the value was 38 nM.
For `CN1Cc2ccc(-c3nc(C#N)c(N)cc3-c3cnn(CC4(C)CCCC4)c3)cc2C1=O` [Example 51, 3-amino-6-(2-methyl-3-oxoisoindolin-5-yl)-5-(1-((1-methylcyclopentyl)methyl)-1H-pyrazol-4-yl)picolinonitrile] the value was 75 nM; for `CN1Cc2ccc(-c3nc(CF)ccc3-c3cnn(CC4(C)CCCC4)c3)cc2C1=O` [Example 52, 6-(6-(fluoromethyl)-3-(1-((1-methylcyclopentyl)methyl)-1H-pyrazol-4-yl)pyridin-2-yl)-2-methylisoindolin-1-one], 40 nM; for `Cc1cc(-c2cnn(CC3(C)CCCC3)c2)c(-c2ccc3c(c2)C(=O)N(C)C3)nc1F` [Example 53, 6-(6-fluoro-5-methyl-3-(1-((1-methylcyclopentyl)methyl)-1H-pyrazol-4-yl)pyridin-2-yl)-2-methylisoindolin-1-one], 61 nM.
Consider `CN1Cc2ncc(-c3nc(C#N)ccc3-c3cnn(CC4(C)CCCC4)c3F)cc2C1=O` [Example 54, 5-(5-fluoro-1-((1-methylcyclopentyl)methyl)-1H-pyrazol-4-yl)-6-(6-methyl-5-oxo-6,7-dihydro-5H-pyrrolo[3,4-b]pyridin-3-yl)picolinonitrile], for which the EC50 came out at 8 nM.
For the molecule `CC1(Cn2cc(-c3cc4c(nc3-c3ccc5c(c3)C(=O)NC5)CCC4)cn2)CCCC1` [Example 55, 6-(3-(1-((1-methylcyclopentyl)methyl)-1H-pyrazol-4-yl)-6,7-dihydro-5H-cyclopenta[b]pyridin-2-yl)isoindolin-1-one], the EC50 amounted to 38 nM.
Then `CC1(Cn2cc(-c3cc4c(nc3-c3ccc5c(c3)C(=O)N(CCC#N)C5)CCC4)cn2)CCCC1` [Example 56, 3-(6-(3-(1-((1-methylcyclopentyl)methyl)-1H-pyrazol-4-yl)-6,7-dihydro-5H-cyclopenta[b]pyridin-2-yl)-1-oxoisoindolin-2-yl)propanenitrile], with 72 nM.
Then `CN1Cc2ccc(-c3nc(F)ccc3-c3cnn(CC4(C)CCCC4)c3F)cc2C1=O` [Example 57, 6-(6-fluoro-3-(5-fluoro-1-((1-methylcyclopentyl)methyl)-1H-pyrazol-4-yl)pyridin-2-yl)-2-methylisoindolin-1-one], with 44 nM; and `CN1Cc2ncc(-c3nc(CF)ccc3-c3cnn(CC4(C)CCCC4)c3)cc2C1=O` [Example 58, 3-(6-(fluoromethyl)-3-(1-((1-methylcyclopentyl)methyl)-1H-pyrazol-4-yl)pyridin-2-yl)-6-methyl-6,7-dihydro-5H-pyrrolo[3,4-b]pyridin-5-one], with 35 nM.
On to `CN1Cc2ncc(-c3nc(F)ccc3-c3cnn(CC4(C)CCCC4)c3F)cc2C1=O` [Example 59, 3-(6-fluoro-3-(5-fluoro-1-((1-methylcyclopentyl)methyl)-1H-pyrazol-4-yl)pyridin-2-yl)-6-methyl-6,7-dihydro-5H-pyrrolo[3,4-b]pyridin-5-one], for which the EC50 is 14 nM.
For `CN1C(=O)c2cc(-c3nc(C#N)ccc3-c3cnn(CC4(C)CCCC4)c3)ccc2C1(C)C` [Example 60] the value was 99 nM; for `CN1Cc2ncc(-c3nc4c(cc3-c3cnn(CC5(C)CCCC5)c3)CCC4)cc2C1=O` [Example 61, 6-methyl-3-(3-(1-((1-methylcyclopentyl)methyl)-1H-pyrazol-4-yl)-6,7-dihydro-5H-cyclopenta[b]pyridin-2-yl)-6,7-dihydro-5H-pyrrolo[3,4-b]pyridin-5-one], 59 nM.
Then `Cc1cc(N)c(-c2cnn(CC3(C)CCCC3)c2)c(-c2ccc3c(c2)C(=O)N(C)C3)n1` [Example 62, 6-(4-amino-6-methyl-3-(1-((1-methylcyclopentyl)methyl)-1H-pyrazol-4-yl)pyridin-2-yl)-2-methylisoindolin-1-one], with 293 nM.
Regarding `CN1Cc2ccc(-c3nc(Cl)cc(N)c3-c3cnn(CC4(C)CCCC4)c3)cc2C1=O` [Example 63, 6-(4-amino-6-chloro-3-(1-((1-methylcyclopentyl)methyl)-1H-pyrazol-4-yl)pyridin-2-yl)-2-methylisoindolin-1-one], the EC50 was 489 nM.
In the case of `CC1(Cn2cc(-c3ccc(C#N)nc3-c3ccc4c(c3)C(=O)NC4(C)C)cn2)CCCC1` [Example 64, 6-(1,1-dimethyl-3-oxoisoindolin-5-yl)-5-(1-((1-methylcyclopentyl)methyl)-1H-pyrazol-4-yl)picolinonitrile], the EC50 is 119 nM.
Then `Cc1ccc(-c2cnn(CC3(C)CCCC3)c2)c(-c2ccc3c(c2)C(=O)N(CC2CC2)C3)n1` [Example 65, 2-(cyclopropylmethyl)-6-(6-methyl-3-(1-((1-methylcyclopentyl)methyl)-1H-pyrazol-4-yl)pyridin-2-yl)isoindolin-1-one], with 136 nM; and `CC1(Cn2cc(-c3cc4c(nc3-c3cnc5c(c3)C(=O)N(CCF)C5)CCC4)cn2)CCCC1` [Example 66, 6-(2-fluoroethyl)-3-(3-(1-((1-methylcyclopentyl)methyl)-1H-pyrazol-4-yl)-6,7-dihydro-5H-cyclopenta[b]pyridin-2-yl)-6,7-dihydro-5H-pyrrolo[3,4-b]pyridin-5-one], with 39 nM.
For `CN1Cc2ccc(-c3nc(CF)ccc3-c3cnn(CC4(C)CCCC4)c3F)cc2C1=O` [Example 68, 6-(3-(5-fluoro-1-((1-methylcyclopentyl)methyl)-1H-pyrazol-4-yl)-6-(fluoromethyl)pyridin-2-yl)-2-methylisoindolin-1-one] the value was 23 nM; for `CC1(Cn2cc(-c3cc4c(nc3-c3cnc5c(c3)C(=O)N(CCC#N)C5)CCC4)cn2)CCCC1` [Example 69, 3-(3-(3-(1-((1-methylcyclopentyl)methyl)-1H-pyrazol-4-yl)-6,7-dihydro-5H-cyclopenta[b]pyridin-2-yl)-5-oxo-5,7-dihydro-6H-pyrrolo[3,4-b]pyridin-6-yl)propanenitrile], 34 nM.
